Data as given in US20260347373A1, “HETEROCYCLIC COMPOUNDS, COMPOSITIONS THEREOF, AND METHODS OF TREATMENT THEREWITH” (BeOne Medicines I GmbH, priority 2023, published 2026).

Columns and labels:
WT KRAS = WT KRAS (Homo sapiens, UniProt P01116); experiment: KRAS WT Probe Displacement Assay (TR-FRET, GDP-loaded); assay type: binding; details: KRAS WT, read-out: KRAS^WT Probe Displacement Assay IC50
Excerpt: (§1) The synthetic routes of probe 1 and 2, which have been disclosed in PCT/CN2022/070676, are hereby incorporated herein.

KRAS G12D = KRAS G12D (Homo sapiens, UniProt P01116, G12D); experiment: KRAS G12D Probe Displacement Assay (TR-FRET, GDP-loaded); assay type: binding; details: KRAS G12D, read-out: KRAS^G12D Probe Displacement Assay IC50
Excerpt: as §1

KRAS G12D, sequence (P01116 1-188 isoform P01116-2 G12D): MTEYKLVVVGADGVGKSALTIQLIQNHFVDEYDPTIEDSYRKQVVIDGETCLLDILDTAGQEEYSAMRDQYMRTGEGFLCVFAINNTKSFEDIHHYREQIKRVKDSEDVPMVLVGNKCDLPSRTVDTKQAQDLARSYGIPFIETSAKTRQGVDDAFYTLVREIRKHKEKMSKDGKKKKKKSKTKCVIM
WT KRAS, sequence (P01116 1-188 isoform P01116-2): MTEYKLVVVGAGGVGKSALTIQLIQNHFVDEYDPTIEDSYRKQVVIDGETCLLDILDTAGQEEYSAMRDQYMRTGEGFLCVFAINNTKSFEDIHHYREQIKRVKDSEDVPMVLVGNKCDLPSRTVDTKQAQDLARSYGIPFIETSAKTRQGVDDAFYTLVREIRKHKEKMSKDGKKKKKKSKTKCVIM

Row | Compound | IC50 (WT KRAS) [nM] | IC50 (KRAS G12D) [nM]
1 | CO[C@@H]1CN2C[C@H](F)C[C@]2(COc2nc3c4c(nc(-c5cc(N)cc(Cl)c5C(F)(F)F)c(F)c4n2)OCC[C@@H]2[C@@H]4CC[C@H](CN32)N4)C1 [Example 217, 3-chloro-5-((6aR,7S,10R)-1-fluoro-13-(((2R,6S,7aS)-2-fluoro-6-methoxytetahydro-1H-pyrrolizin-7a(5H)-yl)methoxy)-5,6,6a,7,8,9,10,11-octahydro-4-oxa-3,11a,12,14,15-pentaaza-7,10-methanocyclohepta[4,5]cycloocta[1,2,3-de]naphthalen-2-yl)-4-(trifluoromethyl)aniline] | 3 to 1000 | < 0.3
2 | Cc1cc(N)cc(-c2nc3c4c(nc(OCC5(C)CC(F)CN(C6CCOCC6)C5)nc4c2F)N2C[C@H]4CC[C@H](N4)[C@H]2CCO3)c1C(F)(F)F (single isomer, unassigned) [Example 234] | 3 to 1000 | 0.3 to 3
3 | Cc1cc(N)cc(-c2nc3c4c(nc(OCC5(CN6CCC(C(F)(F)F)C6)CC5)nc4c2F)N2C[C@H]4CC[C@H](N4)[C@H]2CCO3)c1C(F)(F)F (stereo partly drawn) [Example 91, 3-((6aR,7S,10R)-1-fluoro-13-((1-((3-(trifluoromethyl)pyrrolidin-1-yl)methyl)cyclopropyl)methoxy)-5,6,6a,7,8,9,10,11-octahydro-4-oxa-3,11a,12,14,15-pentaaza-7,10-methanocyclohepta [4,5]cycloocta [1,2,3-de]naphthalen-2-yl)-5-methyl-4-(trifluoromethyl)aniline] | 3 to 1000 | < 0.3
4 | Cc1cc(N)cc(-c2nc3c4c(nc(OCC5(CN6C[C@H]7C[C@H]7[C@@H]6CO)CC5)nc4c2F)N2C[C@H]4CC[C@H](N4)[C@H]2CCO3)c1C(F)(F)F [Example 96, ((1R,2R,5S)-3-((1-((((6aR,7S,10R)-2-(5-amino-3-methyl-2-(trifluoromethyl)phenyl)-1-fluoro-5,6,6a,7,8,9,10,11-octahydro-4-oxa-3,11a,12,14,15-pentaaza-7,10-methanocyclohepta [4,5]cycloocta[1,2,3-de]naphthalen-13-yl)oxy)methyl)cyclopropyl)methyl)-3-azabicyclo [3.1.0]hexan-2-yl) methanol] | 3 to 1000 | < 0.3
5 | Cc1cc(N)cc(-c2nc3c4c(nc(O[C@@H](C)[C@@H]5C[C@@H](F)CN5C)nc4c2F)N2C[C@H]4CC[C@H](N4)[C@H]2CCO3)c1C(F)(F)F [Example 74, 3-((6aR,7S,10R)-1-fluoro-13-((S)-1-((2S,4R)-4-fluoro-1-methylpyrrolidin-2-yl)ethoxy)-5,6,6a,7,8,9,10,11-octahydro-4-oxa-3,11a,12,14,15-pentaaza-7,10methanocyclohepta[4,5]cycloocta [1,2,3-de]naphthalen-2-yl)-5-methyl-4-(trifluoromethyl)aniline] | 3 to 1000 | < 0.3
6 | Cc1cc(N)cc(-c2nc3c4c(nc(OCC5(CN6CCC(C)(C#N)C6)CC5)nc4c2F)N2C[C@H]4CC[C@H](N4)[C@H]2CCO3)c1C(F)(F)F (stereo partly drawn) [Example 167, 1-((1-((((6aR,7S,10R)-2-(5-amino-3-methyl-2-(trifluoromethyl)phenyl)-1-fluoro-5,6,6a,7,8,9,10,11-octahydro-4-oxa-3,11a,12,14,15-pentaaza-7,10-methanocyclohepta[4,5]cycloocta[1,2,3-de]naphthalen-13-yl)oxy)methyl)cyclopropyl)methyl)-3-methylpyrrolidine-3-carbonitrile] | 0.3 to 3 | < 0.3
7 | Nc1cc(Cl)c(C(F)(F)F)c(-c2nc3c4c(nc(OCC5(CN6CCC(=C(F)F)CC6)CC5)nc4c2F)N2C[C@H]4CC[C@H](N4)[C@H]2CCO3)c1 [Example 148, 3-chloro-5-((6aR,7S,10R)-13-((1-((4-(difluoromethylene)piperidin-1-yl)methyl)cyclopropyl)methoxy)-1-fluoro-5,6,6a,7,8,9,10,11-octahydro-4-oxa-3,11a,12,14,15-pentaaza-7,10-methano-cyclohepta[4,5]cycloocta [1,2,3-de]naphthalen-2-yl)-4-(trifluoromethyl)aniline] | 0.3 to 3 | < 0.3
8 | C[C@]1(COc2nc3c4c(nc(-c5cc(N)cc(Cl)c5C(F)(F)F)c(F)c4n2)OCC[C@@H]2[C@@H]4CC[C@H](CN32)N4)CCCN(C2CCOCC2)C1 [Example 196, 3-chloro-5-((6aR,7S,10R)-1-fluoro-13-(((S)-3-methyl-1-(tetrahydro-2H-pyran-4-yl)piperidin-3-yl)methoxy)-5,6,6a,7,8,9,10,11-octahydro-4-oxa-3,11a,12,14,15-pentaaza-7,10-methanocyclopenta[4,5]cycloocta[1,2,3-de]naphthalen-2-yl)-4-(trifluoromethyl)aniline] | 0.3 to 3 | < 0.3
9 | Cc1cc(N)cc(-c2nc3c4c(nc(OCC5(CN6CC(C)OC(C)C6)CC5(F)F)nc4c2F)N2C[C@H]4CC[C@H](N4)[C@H]2CCO3)c1C(F)(F)F (single isomer, unassigned) [Example 24] | 3 to 1000 | 0.3 to 3
10 | [2H]C([2H])([2H])N1CCC(C(F)F)C(C)(C([2H])([2H])Oc2nc3c4c(nc(-c5cc(N)cc(C)c5C(F)(F)F)c(F)c4n2)OCC[C@@H]2[C@@H]4CC[C@H](CN32)N4)C1 (single isomer, unassigned) [Example 240] | 3 to 1000 | 0.3 to 3
11 | C=C1CN2C[C@H](F)C[C@]2(COc2nc3c4c(nc(-c5cc(N)cc(C)c5C(F)(F)F)c(F)c4n2)OCC[C@@H]2[C@@H]4CC[C@H](CN32)N4)C1 [Example 210, 3-((6aR,7S,10R)-1-fluoro-13-(((2R,7aS)-2-fluoro-6-methylenetetrahydro-1H-pyrrolizin-7a(5H)-yl)methoxy)-5,6,6a,7,8,9,10,11-octahydro-4-oxa-3,11a,12,14,15-pentaaza-7,10-methanocyclohepta[4,5]cycloocta[1,2,3-de]naphthalen-2-yl)-5-methyl-4-(trifluoromethyl)aniline] | 3 to 1000 | < 0.3
12 | Cc1cc(N)cc(-c2nc3c4c(nc(OC[C@@]56CCCN5CC(F)(F)C6)nc4c2F)N2C[C@H]4CC[C@H](N4)[C@H]2CCO3)c1C(F)(F)F [Example 33, 3-((6aR,7S,10R)-13-(((S)-2,2-difluorotetrahydro-1H-pyrrolizin-7a(5H)-yl)methoxy)-1-fluoro-5,6,6a,7,8,9,10,11-octahydro-4-oxa-3,11a,12,14,15-pentaaza-7,10-methanocyclohepta[4,5]cycloocta [1,2,3-de]naphthalen-2-yl)-5-methyl-4-(trifluoromethyl)aniline] | 3 to 1000 | < 0.3
13 | Cc1cc(N)cc(-c2nc3c4c(nc(OCC5(CN6CCCC(C)(O)C6)CC5)nc4c2F)N2C[C@H]4CC[C@H](N4)[C@H]2CCO3)c1C(F)(F)F (mixture of isomers) [Example 116, 1-((1-((((6aR,7S, 10R)-2-(5-amino-3-methyl-2-(trifluoromethyl)phenyl)-1-fluoro-5,6,6a,7,8,9,10,11-octahydro-4-oxa-3,11a,12,14,15-pentaaza-7,10-methanocyclohepta [4,5]cycloocta [1,2,3-de]naphthalen-13-yl)oxy)methyl)cyclopropyl)methyl)-3-methylpiperidin-3-ol] | 3 to 1000 | 0.3 to 3
14 | Cc1cc(N)cc(-c2nc3c4c(nc(OCC5(CN6CC(O)(C(F)(F)F)C6)CC5)nc4c2F)N2C[C@H]4CC[C@H](N4)[C@H]2CCO3)c1C(F)(F)F [Example 80, 1-((1-((((6aR,7S,10R)-2-(5-amino-3-methyl-2-(trifluoromethyl)phenyl)-1-fluoro-5,6,6a,7,8,9,10,11-octahydro-4-oxa-3,11a,12,14,15-pentaaza-7,10-methanocyclohepta[4,5]cycloocta [1,2,3-de]naphthalen-13-yl)oxy)methyl)cyclopropyl)methyl)-3-(trifluoromethyl) azetidin-3-ol] | 3 to 1000 | < 0.3
15 | Cc1cc(N)cc(-c2nc3c4c(nc(OCC5(CN6CCC(O)(C(F)(F)F)C6)CC5)nc4c2F)N2C[C@H]4CC[C@H](N4)[C@H]2CCO3)c1C(F)(F)F (mixture of isomers) [Example 92, 1-((1-((((6aR,7S, 10R)-2-(5-amino-3-methyl-2-(trifluoromethyl)phenyl)-1-fluoro-5,6,6a,7,8,9,10,11-octahydro-4-oxa-3,11a,12,14,15-pentaaza-7,10-methanocyclohepta [4,5]cycloocta[1,2,3-de]naphthalen-13-yl)oxy)methyl)cyclopropyl)methyl)-3-(trifluoromethyl) pyrrolidin-3-ol] | 3 to 1000 | < 0.3
16 | COC[C@H]1[C@@H]2C[C@@H]2CN1CC1(COc2nc3c4c(nc(-c5cc(N)cc(C)c5C(F)(F)F)c(F)c4n2)OCC[C@@H]2[C@@H]4CC[C@H](CN32)N4)CC1 [Example 181, 3-((6aR,7S,10R)-1-fluoro-13-((1-(((1R,2R,5S)-2-(methoxymethyl)-3-azabicyclo[3.1.0]hexan-3-yl)methyl)cyclopropyl)methoxy)-5,6,6a,7,8,9,10,11-octahydro-4-oxa-3,11a,12,14,15-pentaaza-7,10-methanocyclohepta[4,5]cycloocta[1,2,3-de]naphthalen-2-yl)-5-methyl-4-(trifluoromethyl)aniline] | 3 to 1000 | < 0.3
17 | Cc1cc(N)cc(-c2nc3c4c(nc(OCC5(CN6CCC7(C6)CC7(F)F)CC5)nc4c2F)N2C[C@H]4CC[C@H](N4)[C@H]2CCO3)c1C(F)(F)F (mixture of isomers) [Example 90, 3-((6aR,7S,10R)-13-((1-((1,1-difluoro-5-azaspiro [2.4]heptan-5-yl)methyl)cyclopropyl)methoxy)-1-fluoro-5,6,6a,7,8,9,10,11-octahydro-4-oxa-3, 11a,12,14,15-pentaaza[7,10]methanocyclohepta[4,5]cycloocta[1,2,3-de]naphthalen-2-yl)-5-methyl-4-(trifluoromethyl)aniline] | 0.3 to 3 | < 0.3
